# Laboratory results as given in patent publication US20250325542A1, “INHIBITORS OF ANTIMOCROBIAL RESISTANCE AND METHOS USING SAME” (Baylor College of Medicine, priority 2022, published 2025).
# Entries after “also recorded” stand apart in the source; their conditions may differ. Like-named read-outs stand apart in the source and are kept apart here.
# Legend:
# KPC-2 [1] = molecular target: T1, KPC-2 (Klebsiella pneumoniae, UniProt Q9F663); assay: DNA-encoded library affinity selection against KPC-2; assay type: binding; conditions: qDOS38_1 library, on-DNA
# T1 sequence (Q9F663 whole entry, looked up, species assumed): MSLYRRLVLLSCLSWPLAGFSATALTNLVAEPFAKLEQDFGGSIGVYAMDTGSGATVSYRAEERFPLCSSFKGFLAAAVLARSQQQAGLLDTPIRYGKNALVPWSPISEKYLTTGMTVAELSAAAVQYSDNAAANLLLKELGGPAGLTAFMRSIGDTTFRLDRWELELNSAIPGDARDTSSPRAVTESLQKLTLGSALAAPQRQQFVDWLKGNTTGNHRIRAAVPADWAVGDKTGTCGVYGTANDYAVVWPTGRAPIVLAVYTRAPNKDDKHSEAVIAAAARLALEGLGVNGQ
# KPC-2 [2] = molecular target: T1, KPC-2; assay: KPC-2 enzyme inhibition (Ki); assay type: biochemical
# Description: Several hits were identified from the qDOS38_1 library against the KPC-2 enzyme. All compounds were synthesized without linker C1a. Among the hit compounds, CDD-2312 had the highest enrichment score of 5.9 but a lower count number of 115 compared to other libraries screened at the same time.
# E. coli NDM-1/XL-1B = assay: Accumulation assay in bacteria (LC-MS); assay type: cell-based; conditions: 50 μM compound, 10 min at 37° C.; tetracycline positive, clindamycin negative control
# Protocol: Briefly, the overnight culture of E. coli NDM-1/XL-1B was inoculated into fresh Luria Bertani (LB) broth (1:100 v/v) and incubated at 37° C. with shaking to an optical density (OD600) of 0.55-0.60. The bacteria were pelleted by centrifugation and washed with 1× phosphate-buffered saline (PBS) before being re-suspended in PBS (28 times concentrated). The colony-forming units (CFUs) were determined by a calibration curve. Re-suspended cells were aliquoted into 1.5 mL Eppendorf tubes and recovered at 37° C. for 5 min. The compounds and controls were added with a final concentration of 50 μM. The mixtures were incubated at 37° C. for 10 min and the OD600 values were recorded to note the growth changes. To collect the cell pellets, 800 μL bacteria-compound mixtures were layered onto 700 μL silicone oil (9:1 v/v, AR20/Sigma High Temperature, pre-cooled at −80° C.) and bacteria were pelleted through the silicone oil by centrifugation. Cell pellets were re-suspended in 200 μL H2O and lysed using three freeze-thaw cycles of 3 min in liquid nitrogen followed by 3 min in a 65° C. water bath. Supernatants were collected after centrifuging and the cell debris was re-suspended in 100 μL methanol. The mixtures from cell debris were then centrifuged, and the methanol supernatants were combined with the supernatants from the last step before LC-MS analysis.
# Two NL of supernatant was injected into a Thermo TSQ Quantis MS coupled with a Thermo Vanish UHPLC for analysis. The Phenomenex Luna C18 column (1.0 mm×50 mm, 1.7 μm) was used for resolving tested compounds with the column temperature being kept constant at 40° C. […] The compound concentrations in the samples were calculated based on their corresponding standard curves. […]
# This could be partially due to the low accumulation of compounds into the periplasm and/or due to modest in vitro inhibition potency (Ki). To discern between the possibilities, the accumulation of inhibitors into bacteria was quantified using mass spectrometry. Compounds were pre-incubated with E. coli inoculum before cells were washed, lysed, and analyzed via mass spectrometry. […]
# E. coli = assay: MIC of PBP-3 screening hits against E. coli; assay type: cell-based; conditions: for MIC: Escherichia coli, inhibitor alone, read-out: E. coli minimum inhibitory concentration (MIC)
# Protocol: (§1) Similarly to KPC-2 and NDM-1, PBP-3 was screened against the β-lactamase-focused library and several hits were identified from qDOS38_2 and qDOS38_4 (Table 7). Since PBP-3 is not a β-lactamase enzyme, the inhibition assay cannot be used to determine the biochemical potency of inhibitor against PBP-3. Instead, in vivo potency was determined directly against E. coli and A. baumanii. Since all bacteria express PBP-3 naturally, other modifications to wild-type bacteria were not necessary.
# (§2) Unlike β-lactamase inhibitor MIC determinations, which measure the synergy between inhibitor and antibiotic, PBP-3 inhibitor MIC determination only measures a single dimension concentration gradient of the inhibitor.
# A. baumanii = assay: MIC of PBP-3 screening hits against A. baumanii; assay type: cell-based; conditions: inhibitor alone
# Protocol: as §1, §2
# NDM-1 = NDM-1 (Klebsiella pneumoniae, UniProt C7C422); assay type: biochemical
# Sequence of NDM-1 (C7C422 whole entry, looked up, species assumed): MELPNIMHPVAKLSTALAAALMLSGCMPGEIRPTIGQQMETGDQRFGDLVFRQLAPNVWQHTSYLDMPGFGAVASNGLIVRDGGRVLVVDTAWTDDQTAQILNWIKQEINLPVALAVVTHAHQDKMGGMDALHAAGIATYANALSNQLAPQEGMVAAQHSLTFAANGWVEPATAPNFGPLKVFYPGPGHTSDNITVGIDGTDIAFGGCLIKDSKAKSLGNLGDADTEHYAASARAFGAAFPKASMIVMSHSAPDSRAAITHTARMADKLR
# [3] = Solubility observed in assay media; assay type: physicochemical
# E. coli expressing NDM-1 = assay type: cell-based; conditions: Ins = insoluble
smiles,measurement,setting,value
"COc1cc(-c2cnc(NCC(=O)O)nc2)cc(C=O)c1OCC(=O)N(C)C [CDD-2312, (5-(4-(2-(dimethylamino)-2-oxoethoxy)-3-formyl-5-methoxyphenyl)pyrimidin-2-yl)glycine]",enrichment score,KPC-2 [1],5.9
same,Ki,KPC-2 [2],657000 ± 123000 nM
"CNCc1cccc(NCc2ccc(-c3ccc(C(=O)O)c(O)c3)o2)c1 [CDD-2376, 2-hydroxy-4-(5-(((3-((methylamino)methyl)phenyl)amino)methyl)furan-2-yl)benzoic acid]",accumulation in bacteria,E. coli NDM-1/XL-1B,lowest amount of accumulation; also recorded: lowest of all three compounds tested and comparable to that of the negative control
"Nc1cccc(NCc2ccc(-c3cncc(C(=O)O)c3)cc2)c1 [CDD-2396, 5-(4-(((3-aminophenyl)amino)methyl)phenyl)nicotinic acid]",MIC,E. coli,256 µg/mL
same,effect against A. baumanii,A. baumanii,Neither of the compounds had any significant effect
"NC(Cc1ccc(O)c(O)c1)C(=O)NCCc1ccccc1 (centres unmarked) [CDD-2507, 2-amino-3-(3,4-dihydroxyphenyl)-N-phenethylpropanamide]",growth of bacteria below the MIC,"E. coli; 16 μg/mL, E. coli",slower growth of bacteria
same,MIC,E. coli,128 µg/mL
same,effect against A. baumanii,A. baumanii,Neither of the compounds had any significant effect
"NCc1cccc(NCc2cccc(-c3ccc(C(=O)O)c(O)c3)c2)c1 [CDD-2616, 3′-(((3-(aminomethyl)phenyl)amino)methyl)-3-hydroxy-[1,1′-biphenyl]-4-carboxylic acid]",Ki,NDM-1,900 ± 440 nM
same,NDM-1 Ki (μM),NDM-1,sub-micromolar inhibition potency
same,accumulation in bacteria,E. coli NDM-1/XL-1B,comparable to that of the positive control
"NCc1cccc(NCc2cccc(-c3ccc(C(=O)O)c(O)c3)n2)c1 [CDD-2653, 4-(6-(((3-(aminomethyl)phenyl)amino)methyl)pyridin-2-yl)-2-hydroxybenzoic acid]",accumulation in bacteria,E. coli NDM-1/XL-1B,much higher
"Cc1cc(CNc2cccc(CN)c2)cc(-c2ccc(C(=O)O)c(O)c2)c1 [CDD-2997, 3′-(((3-(aminomethyl)phenyl)amino)methyl)-3-hydroxy-5′-methyl-[1,1′-biphenyl]-4-carboxylic acid]",solubility in aqueous solution,"[3]; MIC medium, above 64 μg/mL",low solubility in aqueous solution
same,solubility in buffer,[3]; at the accumulation assay concentration (50 μM),low solubility in buffer
same,Imipenem MIC (μg/mL),E. coli expressing NDM-1; [inhibitor] 64 μg/mL,Ins
same,Imipenem MIC (μg/mL),E. coli expressing NDM-1; [inhibitor] 128 μg/mL,Ins
same,Ki,NDM-1,530 ± 370 nM
